Columns and labels:
[1] = test system: activated 3T3-GFP fibroblasts; experiment: High-throughput screening of LNPs: GFP knockdown, plate reader; type: cell-based, murine; conditions: 50 nM siGFP, 48 h post-treatment
Description: High-throughput screening of LNPs was performed by evaluating GFP knockdown efficiency in 96-well plates using a plate reader assay. 3T3-GFP cells were re-suspended in DMEM containing 10 ng/ml of TGF-β, and seeded into a 96-well plate at a density of 5,000 cells per well. After 24 h, activated cells were treated with various LNPs loaded with siGFP (50 nM). At 48 h post-treatment, the GFP signal in each well was obtained using an Infinite M Plex plate reader (Tecan, Morrisville, NC, USA) with an excitation of 488 nm and an emission of 520 nm. Cell viability was measured using a CellTiter-Glo Luminescent Cell Viability Assay according to the manufacturer's instruction (G7572, Promega).

[2] = Gel retardation assay (agarose gel electrophoresis); type: physicochemical; conditions: weight ratio of AA-T3A-C12:siRNA above 5:1; 500 ng siRNA per lane
Description: FIGS. 11A-11B depict optimization of the weight ratio of AA-T3A-C12 to siRNA. FIG. 11A: gel retardation assay. LNPs with different weight ratios of AA-T3A-C12:siRNA were analyzed by 1% agarose gel electrophoresis. 500 ng siRNA was loaded into each lane. […] FIG. 11B: RiboGreen RNA assay. The siRNA encapsulation efficiency reached a plateau of ˜90% when the weight ratio of AA-T3A-C12:siRNA was 10:1. Data are presented as mean±SD (n=3).
(§1) The hydrodynamic diameter, polydispersity index (PDI), and zeta potential of LNPs were measured using a Zetasizer Nano ZS90 (Malvern Instruments, Malvern, UK). The morphology of LNPs was characterized by transmission electron microscopy (JEOL 1010, Tokyo, Japan). The siRNA-LNP complex was analyzed by agarose gel electrophoresis. siRNA encapsulation efficiency was determined using a modified Quant-iT RiboGreen RNA assay (Invitrogen) as previously described. The pKa of LNP was determined by 6-(p-toluidinyl)naphthalene-2-sulfonic acid (TNS) assay as previously described.

[3] = test system: activated 3T3-GFP fibroblasts; experiment: Second-round screening: dependency on sigma receptor-mediated transfection (haloperidol pre-treatment); type: cell-based, murine; conditions: 30 μM haloperidol 2 h, then 50 nM siGFP LNP 48 h
Description: The top-performing LNPs were subjected to a second round of screening by evaluating their dependency on sigma receptor-mediated transfection. Activated 3T3-GFP cells were treated with or without haloperidol (30 μM) for 2 h before various LNPs loaded with siGFP (50 nM) were used to treat these cells for another 48 h. The GFP signal in each well was obtained as described above.

[4] = siRNA encapsulation efficiency, RiboGreen RNA assay; type: physicochemical; conditions: weight ratio of AA-T3A-C12:siRNA 10:1
Description: as §1

SMILES	GFP knockdown [1]	free siRNA in gel retardation assay [2]	change of GFP silencing activity after haloperidol (HP) treatment [3]	siRNA encapsulation efficiency plateau [4]
CCCCCCCCCCC(O)CN(CCN(CCNC(=O)c1ccc(OC)cc1)CCN(CC(O)CCCCCCCCCC)CC(O)CCCCCCCCCC)CC(O)CCCCCCCCCC (stereo not shown) [AA-110-C12]	~70%			
CCCCCCCCCCC(O)CN(CCCN(CCCNC(=O)c1ccc(OC)cc1)CCCN(CC(O)CCCCCCCCCC)CC(O)CCCCCCCCCC)CC(O)CCCCCCCCCC (stereo not shown) [AA-T3A-C12, N-(3-(bis(3-(bis(2-hydroxydodecyl)amino)propyl)amino)propyl)-4-methoxybenzamide]		Little to no free siRNA was observed	the most significant loss of activity	~90%
